Measurements published in patent US20200164025A1, “AN[…] E[…] AND ACE2 BY BRG1-FOXM1 COMPLEX UNDERLIES PA[…] HYPERTROPHY” (INDIANA UNIVERSITY RESEARCH AND TECHNOLOGY CORPORATION, priority 2014, published 2020).

Tests used:
[1] = test system: Ace and Ace2; assay: Western blot analysis of Ace and Ace2 in heart ventricles of thiostrepton treated mice after TAC; format: in vivo; settings: 2 weeks after TAC
Description: (§1) FoxM1 is a transcription factor that regulates the expression of genes associated with pathological hypertrophy. […] However, FoxM1 mRNA increased by 8.4-fold in TAC-stressed hearts (FIG. 6A), and the protein was present in the nuclei of both myocytes and endothelial cells of stressed hearts (FIGS. 6B and 6C). Because of the stress-induced endothelial expression of FoxM1, it was evaluated if FoxM1 cooperated with Brg1 to regulate Ace and Ace2 expression. The necessity of FoxM1 activation for cardiac hypertrophy by using FoxM1 inhibitor thiostrepton to inhibit FoxM1 in TAC-stressed hearts was tested. Within 4 weeks after TAC, the control mice injected with DMSO developed severe cardiac hypertrophy with increased ventricle-body weight ratio, interstitial fibrosis, and cardiac dysfunction with reduced left ventricular fractional shortening (FS) (FIGS. 6D, 6E, and 6G). […] Collectively, these findings indicate that FoxM1 activation by stress is necessary for cardiac myopathy and for stress-induced changes of Ace and Ace2.

[2] = test system: Ace and Ace2 promoter; assay: Luciferase reporter assays of Ace and Ace2 proximal promoters in mouse cardiac endothelial cells; format: cell-based; settings: MCEC cells
Description: The transcriptional activity of Brg1 on the Ace and Ace2 promoters was also tested. 3.1 kb of Ace upstream promoter (−2983 bp to +174 bp) and 7.8 Kb of Ace2 upstream promoter (−7063 bp to +786 bp) were cloned into the episomal reporter pREP4 that undergoes chromatinization in mammalian cells. The reporter constructs and Brg1-expressing plasmid were transfected into mouse cardiac endothelial cells. In these cells, Brg1 caused a 1.7-fold increase in Ace promoter activity and 59% reduction in Ace2 promoter activity (FIG. 5P). Combined with the ChIP results, these reporter studies indicate that Brg1 activates Ace promoter and represses Ace2 promoter, providing a mechanism for the antithetical changes of Ace and Ace2 in stressed hearts.
Inhibition of FoxM1 by thiostrepton eliminated the ability of Brg to activate Ace and repress Ace2 promoter (FIGS. 10F and 10G).

[3] = test system: TAC-stressed hearts; assay: TAC pressure-overload cardiac hypertrophy in mice treated with thiostrepton; format: in vivo
Description: as §1

## C=C(NC(=O)C(=C)NC(=O)c1csc(C2=N[C@@H]3c4csc(n4)[C@H]4NC(=O)c5csc(n5)[C@H]([C@](C)(O)[C@@H](C)O)NC(=O)[C@H]5CSC(=N5)/C(=C/C)NC(=O)[C@H]([C@@H](C)O)NC(=O)c5csc(n5)[C@]3(CC2)NC(=O)[C@H](C)NC(=O)C(=C)NC(=O)[C@H](C)NC(=O)[C@H]([C@@H](C)CC)N[C@@H]2C=Cc3c([C@H](C)O)cc(nc3[C@H]2O)C(=O)O[C@@H]4C)n1)C(N)=O [thiostrepton]
[1]; Western blot of heart ventricles
  TAC-induced changes of Ace and Ace2: abolished
[1]; Western blot quantitation
  reduction of Ace/Ace2 ratio in stressed hearts: 6.53 fold
[2]
  ability of Brg to activate Ace and repress Ace2 promoter: eliminated
[3]; 4 weeks after TAC, echocardiography, vs DMSO control
  improvement of left ventricular fractional shortening (FS): 28%
[3]; 4 weeks after TAC, vs DMSO control
  reduction of hypertrophy (ventricle-body weight ratio): ~50%
[3]; within 4 weeks after TAC
  cardiac dysfunction: lesser degree of cardiac dysfunction
[3]; within 4 weeks after TAC, trichrome staining
  interstitial fibrosis: mild interstitial fibrosis
[3]; within 4 weeks after TAC, vs DMSO control
  cardiac hypertrophy: mild cardiac hypertrophy
